Consider one molecule from PMC6158189, “A pharmacological probe identifies cystathionine β-synthase as a new negative regulator for ferroptosis” (Cell Death & Disease, 2018).

Entries after “also recorded” stand apart in the source; their conditions may differ.

Assay [1] has as its target T1, CBS-FL mutant (293T-CBS Q222A) (Homo sapiens, UniProt P35520, Q222A).
T1 construct: human CBS or hCSE full-length (CBS-FL or CSE) was subcloned into pGEX-KG, pcDNA3 or pCDH vector; expressed in transfected cells
Nature of the assay: H2S in HEK293T cells stably expressing CBS Q222A (AzMC probe). The conditions noted are these: 5 and 10 μM CH004, 8 h. Format: cell-based. How it is done:
HEK293T cells were transiently transfected with empty vector (EV, i and ii), hCBS-FL (iii and iv) or hCSE (v and vi) plasmids, followed by incubation with DMSO (i–iii and v) or 10 μM CH004 (iv and vi) for 8 h before staining with 50 μM AzMC, a H2S-specific probe (“Materials and Methods” section). For larger fluorescent and bright-field images, please see Supplementary Figure 4. The expression levels of hCBS or hCSE in HEK293T cells after transient transfections were determined by western blotting using an anti-CBS antibody (3E1, 1:2000; Abnova) or anti-CSE antibody (1:500, GeneTex). The densities of protein bands for hCBS or hCSE in the blots were quantified with the ImageJ software (National Institutes of Health, Bethesda, MD, USA) and expressed as ratios of respective control (EV group). […] The fluorescent images of the H2S (blue) were accordingly quantified (“Materials and Methods” section) with ImageJ. […] A representative fluorescence image from three independent experiments is shown. […]
H2S levels in living cells were detected using a H2S-specific fluorescent probe according to a protocol described previously[31],[55]. […] After incubation with 50 μM AzMC at 37 °C for 30 min, the cells were washed 4 times with PBS, and the fluorescent images were recorded with excitation by 405 nm laser by using a A1Si (Nikon) confocal microscope. […]

Assay [2] addresses T2, hCBS (GST-tagged CBS-413) (Homo sapiens, UniProt P35520).
T2 construct: hCBS-413 (a C-terminal truncated hCBS 1–413); made in house; host or cells: E. coli BL21
Nature of the assay: surface plasmon resonance (BIAcore T200). Format: binding. The conditions noted are these: 0.097–12.5 µM injected over hCBS-coated chip; read-out: KD (SPR). How it is done:
Surface Plasmon Resonance assays (SPR) with a BIAcore T200 (GE Healthcare, Uppsala, Sweden) were used to observe the direct interaction between inhibitors and hCBS. The SPR assay was performed in running buffer (1× PBS with 0.05% P20) and the purified GST-tagged CBS-413 (500 μg/mL) was immobilized onto a flow cell of a CM5 sensor chip using a GST antibody coupling kit in running buffer. The KD values were determined with the Biacore evaluation 3.1 software.
Figure S2. The mode of action of CH004 in inhibiting hCBS. […] After incubation with DMSO or CH004 at 10 μM for 40 min, hCBS (20 μM) was diluted 200-fold and the activity was measured according to the standard assay protocol (Materials and Methods). The data are presented as percentages of control (CTR; DMSO, 100%) and shown as means ± SDs (n = 5). The effects of 0.05 and 10 μM CH004 on hCBS (100 nM) without pre-incubation were defined as positive control (PC) and negative control (NC), respectively. (B) Inhibition of hCBS by CH004 as a function of PLP concentration with Cys (20 mM) together with Hcys (10 mM) as substrates (non-competitive inhibition constant αKi=15.2 ± 4.9 μM). […] The αKi or αKi’ values were calculated by using the non-linear fitting method for enzyme kinetics in GraphPad Prism 5. […] Dissociation constants for CH004 (KD) were calculated by using Biacore evaluation software (Materials and Methods).

As usually defined, the Kd is the equilibrium constant for the complex coming apart. In the case of `Cn1nc(Cc2ccccc2)nc2c(=O)n(C)c(=O)nc1-2` [CH004, 3-benzyl-1,6-dimethylpyrimido[5,4-e][1,2,4]triazine-5,7(1H,6H)-dione], the “effect on H2S” value in assay [1] is recorded as “no significant decrease; also recorded: hardly affected”. Also, in assay [2], the dissociation constant (Kd) was determined as 600 ± 300 nM.
